US7264932B2, “Nuclease inhibitor cocktail” (Applera Corporation, priority 1999, dated 2007)

Legend:
nuclease = nuclease (Homo sapiens, UniProt P03950); assay: Ki of Lead 1 and Lead 2 analogs (Tables 1 and 2); assay type: biochemical; details: Table 1, Lead 1 Analog List
bovine RNase A [1] = molecular target: T1, bovine RNase A (Bos taurus, UniProt P61823); assay: Intactness of total RNA (RNA LabChip), bovine RNase A; assay type: biochemical; details: 100 uM BpB, 8.3 pg/ul bovine RNase A
T1 sequence (P61823 27-150): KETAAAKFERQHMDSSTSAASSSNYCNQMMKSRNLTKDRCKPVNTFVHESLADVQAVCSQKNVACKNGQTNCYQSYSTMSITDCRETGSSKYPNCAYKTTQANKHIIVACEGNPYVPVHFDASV
Description: (§1) A total of 100 pg/ul e. […].
(§2) Mouse pancreatic tissue (5 mg) was disrupted in 50 ul of 24 mM Hepes, pH 7.2, 50 mM NaCl, 1 mM MgCl2. The diluted lysate (1:20,000) was pre-incubated with 50 uM Benzopurpurin B (BpB) for 30 sec and then added to 100 ng/ul mouse liver total RNA (Ambion) and incubated at 23 C for an additional 4 min. Samples were quenched in a guanidinium lysis buffer, and the RNA purified via MEGAclear™ MAG-96 and eluted with 20 ul nuclease-free water. […] These experiments were conducted in the same fashion except that 100 uM BpB was employed. The sample (1 ul) was analyzed by 2100 BioAnalyzer software (Agilent) after separation on an RNA LabChip.
(§3) Pancreatic tissue (5 mg) was dounced in 50 ul of 24 mM Hepes, pH 7.2, 50 mM NaCl, 1 mM MgCl2. The lysate was diluted (1:20,000) and then pre-incubated with 200 uM of 467929. […] All samples were pre-incubated for 30 sec before being added to 100 ng/ul mouse liver total RNA (Ambion) and incubated at 23C for an additional 4 min. The RNA was then immediately purified via MEGAclear™ MAG-96 and eluted with 20 ul nuclease-free water. The recovered RNA (1 ul) was analyzed by 2100 BioAnalyzer software after separation on an RNA LabChip.

diluted pancreas lysate = assay: Intactness of total RNA (RNA LabChip), diluted pancreas lysate; assay type: biochemical, mouse; details: pancreas lysate 1:20,000, 23 C 4 min
Description: as §1
Pancreatic lysate (0.1 mg/ml) was diluted 1:20,000 in 24 mM Hepes, pH 7.2, 50 mM NaCl, 1 mM MgCl2 and pre-incubated with either 1% SDS or 6.25 mM OVA for 30 s prior to the addition of 2 ug mouse liver total RNA. Reactions were incubated at 25 C for an additional 4 min, quenched, and analyzed on an RNA LabChip.
as §2
Mouse pancreatic tissue (5 mg) was dounced in 50 ul of 24 mM Hepes, pH 7.2, 50 mM NaCl, 1 mM MgCl2. A diluted lysate (1:20,000) was pre-incubated with 100 uM BpB or the analog Benzopurpurin 4B (Bp4B) for 30 sec and then added to 100 ng/ul mouse liver total RNA (Ambion) and incubated at 23 C for an additional 4 min. Samples were quenched in a guanidinium lysis buffer, and the RNA purified via MEGAclear™ MAG-96 and eluted with 20 ul nuclease-free water. The sample (1 ul) was analyzed by 2100 BioAnalyzer software (Agilent) after separation on an RNA LabChip.
as §3

[2] = molecular target: eosinophil-derived neurotoxin (EDN) (Homo sapiens, UniProt P10153); assay: Intactness of total RNA (RNA LabChip), EDN; assay type: biochemical; details: 100 uM BpB, 1 ng/ul EDN
eosinophil-derived neurotoxin (EDN), sequence (P10153 28-161): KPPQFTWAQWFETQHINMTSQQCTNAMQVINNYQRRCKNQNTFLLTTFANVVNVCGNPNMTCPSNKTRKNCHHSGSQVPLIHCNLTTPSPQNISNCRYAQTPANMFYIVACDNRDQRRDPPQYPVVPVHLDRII

[3] = molecular target: T2, human pancreatic RNase (HPR) (Homo sapiens, UniProt P07998); assay: Intactness of total RNA (RNA LabChip), HPR; assay type: biochemical; details: 100 uM BpB, 1 ng/ul HPR
T2 sequence (P07998 29-156): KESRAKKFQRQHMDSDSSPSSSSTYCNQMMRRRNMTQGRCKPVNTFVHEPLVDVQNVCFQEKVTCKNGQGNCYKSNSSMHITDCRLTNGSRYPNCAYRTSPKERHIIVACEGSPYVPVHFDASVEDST

E. coli RNase I = E. coli RNase I (Escherichia coli, UniProt P21338); assay: Intactness of total RNA (RNA LabChip), E. coli RNase I; assay type: biochemical; details: 100 uM BpB, 7 ng/ul E. coli RNase I
E. coli RNase I, sequence (P21338 24-268): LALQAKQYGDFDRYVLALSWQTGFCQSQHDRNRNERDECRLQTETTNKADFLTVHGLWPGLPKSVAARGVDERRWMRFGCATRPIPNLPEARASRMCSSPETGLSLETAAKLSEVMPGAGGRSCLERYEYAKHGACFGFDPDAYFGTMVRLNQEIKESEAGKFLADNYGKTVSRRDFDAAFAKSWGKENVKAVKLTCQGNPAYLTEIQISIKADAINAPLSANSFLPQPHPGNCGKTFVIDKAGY

DNase I = DNase I (Bos taurus, UniProt P00639); assay: Lambda DNA digestion assay with DNase I; assay type: biochemical; details: 0.02 U DNase I, 1 ug lambda DNA, 10 min at 37C
DNase I, sequence (P00639 23-282): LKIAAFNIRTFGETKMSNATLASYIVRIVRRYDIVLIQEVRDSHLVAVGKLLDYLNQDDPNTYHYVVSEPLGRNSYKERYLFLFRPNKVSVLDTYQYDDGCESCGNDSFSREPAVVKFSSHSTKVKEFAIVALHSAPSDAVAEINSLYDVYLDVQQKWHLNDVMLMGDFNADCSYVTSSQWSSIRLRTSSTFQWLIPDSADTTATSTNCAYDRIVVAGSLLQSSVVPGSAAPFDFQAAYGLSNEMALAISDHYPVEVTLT
Excerpt: One application for small molecule RNase inhibitors is as an RNA control agent during enzymatic manipulation of solutions containing RNA. These reactions include in vitro transcription, in vitro translation, DNase digestion, and reverse transcription, among others. […] […] […] All reactions were quenched with EDTA and the cleavage products resolved on a 1% agarose gel.
As a result, compounds such as #467929, 140553, and 180582 may have utility in curbing the activity of residual RNases that may carry over from RNA isolation methods during DNase treatments of the RNA.

[4] = tested on: one-step RT-PCR with MMLV-RT and SuperTaq, target hGAPDH; assay: One-step qRT-PCR tolerance, hGAPDH; assay type: biochemical
Description: To evaluate the compatibility of Benzopurpurin B and 4B in RT-PCR applications, 100 nM, 1 uM, 10 uM, and 25 uM were tested in Ambion's MessageSensor RT-PCR Kit using the supplier's instructions and using primers/probe designed to amplify a 226 nt amplicon from the human GAPDH mRNA. Reaction conditions: 20-ul one-step RT-PCR with MMLV-RT (0.4 U/ul final) and SuperTaq (0.04 U/ul final). Cycling conditions: Stage 1. 42 C for 15 minutes, Stage 2. 95 C for 5 min, Stage 3. 95 C-15 sec and 60 C-60 sec, where Stage 3 is repeated 40 times. […] The compound was tolerated at 10 uM or lower with no significant loss of sensitivity (Table 16).

bovine RNase A [5] = molecular target: T1, bovine RNase A; assay: Ki determination by Dixon analysis (RNaseAlert); assay type: biochemical; details: 74 pM RNase A, 40 nM RNaseAlert substrate, pH 7.0
Excerpt: To measure the inhibition constant of compound #467929 against bovine RNase A, Dixon analysis was used to determine the relationship between RNase activity and inhibitor concentration. The […] fluorescence assay (Ambion) was used to quantify RNase activity.

MMLV RT RNase H = MMLV RT RNase H (Moloney murine leukemia virus, UniProt P03355); assay: RT-based RNase H cleavage of RNA:DNA hybrid; assay type: biochemical
Description: As described above, Chembridge compound #467929 offered protection from several RNA-specific endonucleolytic activities. […] A 20-mer DNA oligonucleotide was asymmetrically annealed to a 1500 base synthetic RNA to create an RNA:DNA duplex substrate for RNase H. Reactions were initiated with 10 U of MMLV RT in 1× RT buffer (50 mM TrisCl pH 8.3, 75 mM KC, 3 mM MgCl2, 5 mM DTT) containing 500 ng/ul RNA:DNA hybrid. All reactions contained 5% DMSO either with or without the small molecule RNase inhibitor. Samples were incubated for 5 min at 37 C, and quenched with EDTA. Products were resolved on an RNA LabChip. Cleavage products were observed as two equally represented RNA species of 1000 and 500 bases. Product length and yield were determined using the 2100 BioAnalyzer software (Agilent). Table 18 details the level of inhibition of MMLV RT RNase H that is observed as a function of the concentration of compounds 467929 and 227726.

nuclease, sequence (P03950 25-147): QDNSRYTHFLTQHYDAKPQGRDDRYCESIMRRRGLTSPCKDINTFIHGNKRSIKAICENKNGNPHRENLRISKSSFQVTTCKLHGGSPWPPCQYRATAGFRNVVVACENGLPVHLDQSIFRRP

Compound | Ki (nuclease) [µM] | inhibition of RNase (RNA intactness) (bovine RNase A [1]) | protection of total RNA from degradation (diluted pancreas lysate; 50 uM BpB) | protection of total RNA from degradation (diluted pancreas lysate; 100 uM inhibitor) | inhibition of RNase (RNA intactness) [2] | inhibition of RNase (RNA intactness) [3] | inhibition of RNase (RNA intactness) (E. coli RNase I) | concentration tolerated with little or no effect on enzymatic DNA cleavage (DNase I) | Ct at 50 ng Input RNA ([4]; RT w RIP, inhibitor 1 uM) | Ct at 50 ng Input RNA ([4]; RT w RIP, inhibitor 10 uM) | Ct at 50 ng Input RNA ([4]; RT w RIP, inhibitor 25 uM) | Ct at 50 ng Input RNA ([4]; RT w RIP, inhibitor 100 nm) | Ct at 50 ng Input RNA ([4]; RT without RIP, inhibitor 1 uM) | Ct at 50 ng Input RNA ([4]; RT without RIP, inhibitor 10 uM) | Ct at 50 ng Input RNA ([4]; RT without RIP, inhibitor 25 uM) | Ct at 50 ng Input RNA ([4]; RT without RIP, inhibitor 100 nm) | Ki (bovine RNase A [5]) [µM] | % Cleavage (MMLV RT RNase H; inhibitor 8 uM, 36 without inhibitor) [%] | % Cleavage (MMLV RT RNase H; inhibitor 40 uM) [%]
Cc1cc(-c2ccc(/N=N/c3c(N)ccc4cc(S(=O)(=O)O)ccc34)c(C)c2)ccc1/N=N/c1c(N)ccc2cc(S(=O)(=O)O)ccc12 [Benzopurpurin B, 3,3′-di-methylbiphenyl-4,4′-bis(2-amino-naphthylazo-6-sulfo-nate)] | 5 | effective inhibitor | significant protection | significant protection | effective inhibitor | effective inhibitor | effective inhibitor | up to 10 uM | 17.66 | 19.27 | undet | 17.27 | 17.35 | 17.96 | undet | 17.39 | – | – | –
O=C(Nc1ccc(Cc2ccc(NC(=O)c3cccc([N+](=O)[O-])c3)c(C(=O)O)c2)cc1C(=O)O)c1cccc([N+](=O)[O-])c1 [compound 467929, 3,3′-dicarboxy-4,4′-bis(3-ni-trophenylamido)di-phenylmethane] | – | – | – | – | – | – | – | – | – | – | – | – | – | – | – | – | ~12 | 42 | 8
